The results in this text go back to US20210161837A1, “METHODS FOR TREATING CANCER WITH RORGAMMA INHIBITORS” (The Regents of the University of California, priority 2016, published 2021).

Assay [1] has as its system TNBC cells including MDA-MB468, MDA-MB231, BT20, SUM149 and HCC1937. Put plainly: Cell viability (CellTiter-GLO), 4 days, TNBC cells. Particulars: Homo sapiens, 96 h. Type of assay: cell-based. On the procedure:
(§1) For cell viability, cells were seeded in 96-well plates at 1500-2500 cells per well (optimum density for growth, depending on the specific cell line) in a total volume of 100 μl media. Serially diluted compounds in 100 μl of media were added to the cells 12 hours later. After 4 days of incubation, Cell-Titer GLO reagents (Promega) were added and luminescence was measured on GLOMAX microplate luminometer (Promega), according to the manufacturer's instructions. All experimental points were set up as sextuplicate as biological replication and the entire experiments were repeated three times. The data are presented as percentage of viable cells with vehicle treated cells set as 100. The estimated in vitro IC50 values were calculated using GraphPad Prism 6 software.

The next assay has as its system HCC1954. Put plainly: Cell viability (CellTiter-GLO), 4 days, HER2-positive cells. The format is cell-based. The conditions noted are these: Homo sapiens, 96 h; HER2-positive HCC1954, 4 days. On the procedure: as §1
In the next assay the test system is T47D. Put plainly: Cell viability (CellTiter-GLO), 4 days, ER-positive cells. The format is cell-based. Particulars: Homo sapiens, 96 h. Here is the method: as §1
The test system of a further assay is MCF-7. The assay is described as above. The conditions noted are these: Homo sapiens, MCF7, 96 h; ER-positive MCF-7, 4 days. The format is cell-based. Here is the method:
as §1

In a further assay the test system is MDA-MB468 cells. Nature of the assay: Cell viability (CellTiter-GLO), 4 days, TNBC cells. Type of assay: cell-based, human. On the procedure:
The “No.” label for each compound corresponds to the “Structure No.” in Table 2 (e.g., “No. 36”=“Structure No. 36” in Table 2). The cell viability curves were measured by CellTiter-GLO.
as §1, with “growth)” for “growth, depending on the specific cell line)”
(In ATP-based viability assays light output follows the ATP content of the culture.)

Assay [2] relates to key proliferation and survival proteins, including Myc. Nature of the assay: Immunoblotting of key proliferation and survival proteins. Type of assay: cell-based, human. The conditions noted are these: 3 days. On the procedure:
Data shown are mean percentage of apoptotic cells±s.d. […] Data shown are mean±s.d. Significance was calculated using Student's t-test. *p<0.05, **p<0.01.
(a&b) C4-2B and 22Rv1 cell proliferation after the RORγ antagonist treatment. Cells were seeded in 6-well plates and counted after cells were treated with indicated concentrations of RORγ antagonists for 0, 2, 4 and 6 days by Coulter counter. […] (e) representative images of TUNEL positive cells treated with vehicle or the antagonist (5 μM) in 22Rv1 cells are shown. […] Three days later, cells were harvested for immunoblotting with indicated antibodies.
(§2) Total RNA was isolated from cells in 6-well or 10-cm plates or from xenograft tumors, and the cDNA was prepared, amplified and measured in the presence of SYBR as described in Yang, P., et al., Molecular and cellular biology 32, 3121-3131 (2012). Briefly, the fluorescent values were collected and a melting curve analysis was performed. Fold difference was calculated as described previously Yang, P., et al. (see, id). The experiments were performed at least three times with data presented as mean values±s.d. Cell lysates were analyzed by immunoblotting with antibodies specifically recognizing RORγ, AR, AR-V7 and the indicated proteins.
For orientation: Immunoblotting shows a protein as a band on a membrane.

Assay [3] concerns gastric cancer KATO III cells. Nature of the assay: Cell viability (Cell-Titer GLO), 4 days, gastric cancer cells. Type of assay: cell-based, human. On the procedure:
Experiments were independently performed three times.
as §1, with “100.” for “100. The estimated in vitro IC50 values were calculated using GraphPad Prism 6 software.”

Assay [4] deals with lung cancer cells (A427, Calu1, A549, H23, H358, H1666, HCC827, PC-9, H69, H209). Put plainly: Cell viability (CellTiter-GLO), 4 days, lung cancer cells. The format is cell-based. Particulars: Homo sapiens, 96 h, NSCLC and SCLC lung cancer cells. The source says:
All those cells are derived from human tumors of non-small cell lung carcinoma (NSCLC).

A further assay concerns AR and AR-V7 expression. Nature of the assay: Immunoblotting and qRT-PCR of AR and AR-V7 expression in C4-2B and VCaP cells. The format is cell-based, human. On the procedure:
Data shown are mean±s.d. Significance was calculated using Student's t-test. *p<0.05, **p<0.01.
as §2

The subject of the next assay is 22Rv1 xenografts. Put plainly: 22Rv1 xenograft tumor growth. Particulars: 5 mg/kg, i.p., 5 times a week, 21-24 days. The format is in vivo, mouse.
Another assay concerns MCF-7-C6. Put plainly: Growth and survival of radiation-resistant breast cancer cells. Particulars: radiation-resistant MCF-7-C6. The format is cell-based, human.
A further assay concerns the target T1, RORγ (Homo sapiens, UniProt P51449).
T1 construct: reporter gene assay in 293T cells with Gal4-RORγ LBD expression vectors; expressed in transfected cells; host or cells: 293T cells
Nature of the assay: RORγ transcriptional activity, reporter gene assay in 293T cells with Gal4-RORγ LBD expression vectors. The conditions noted are these: read-out: EC50, inhibition of RORγ constitutive activity. Type of assay: cell-based. Here is the method: The 2-([1,1′-biphenyl]-4-yl)-1,1,1,3,3,3-hexafluoropropan-2-ol group of SR2211 was kept, while the amide group of the GSK agonist was chosen as linker. FIG. 2B illustrates RORγ transcriptional activity measured by reporter gene assay in 293T cells with Gal4-RORγ LBD expression vectors. EC50 values are reported as means±s.d. for ≥8 separate titrations from 10 μM. In vitro binding to the ligand binding domain (LBD) was measured by AlphaScreen and by thermal shift assay (TSA).
For example, the phenyl group in the middle likely forms a π-π interaction with the side chain of Phe378 of the LBD, while the amide group can form a direct hydrogen bond with Phe377. The nitro group and hydroxyl group at the two ends may form hydrogen bonds with Glu379 and His479, respectively.
Background: Reporter assays use an easily measured gene product as a stand-in for the process of interest.

T1 sequence (P51449 269-508 limits assumed): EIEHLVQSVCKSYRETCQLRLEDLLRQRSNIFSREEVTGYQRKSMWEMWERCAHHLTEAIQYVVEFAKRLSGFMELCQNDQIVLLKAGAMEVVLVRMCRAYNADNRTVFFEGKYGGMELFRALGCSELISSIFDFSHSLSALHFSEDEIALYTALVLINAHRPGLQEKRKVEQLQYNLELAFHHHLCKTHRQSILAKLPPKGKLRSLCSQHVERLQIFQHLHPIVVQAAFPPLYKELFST

What is called IC50 is the concentration at which inhibition is half-maximal. A word on the EC50: it is the concentration at which the effect is half-maximal. `O=C(Cc1ccccc1[N+](=O)[O-])Nc1ccc(-c2ccc(C(O)(C(F)(F)F)C(F)(F)F)cc2F)cc1` [XY018, N-(2′-fluoro-4′-(1,1,1,3,3,3-hexafluoro-2-hydroxypropan-2-yl)-[1,1′-biphenyl]-4-yl)-2-(2-nitrophenyl)acetamide]: the IC50 was 0.5 to 3 µM in assay [1]; 1.47 µM in the assay on HCC1954; approximately 9 µM in the assay with T47D; approximately 9 µM in the assay on MCF-7; 3.3 to 9 µM in assay [4]. Besides, the “inhibition of growth and survival” value was “strongly inhibited the growth and survival” with MDA-MB468 cells; “strongly inhibited the growth and survival” in assay [3]; “potently inhibiting the growth and survival” in the assay on MCF-7-C6. Also, the “expression of key proliferation and survival proteins, including Myc” value in assay [2] is “strongly inhibited the expression”. The “AR and AR-V7 expression” value in the assay with AR and AR-V7 expression was “inhibited by XY018 in dose-dependent manner”. For the same compound, in the assay on 22Rv1 xenografts, the tumor growth inhibition result was “strong tumor growth inhibition”. In addition, the EC50 at RORγ was found to be 0.19 µM.
